≈ marks a conversion by molar mass, not a printed value. Marks after values point to notes of the source that are not given here. Blank lines part the entries; values can stand above or below the molecule they belong to.
Tests used:
[1] = system: breast (SKBR3) cancer cell line; assay: Cellular inhibition, Alamar Blue; type: cell-based; details: Homo sapiens, SK-BR-3
Experimental: (§1) Assays were performed with 3 cancer cell lines: breast (SKBR3), pancreatic (Panc1), prostate (PC-3) and 1 normal (nor-cancer) cell line (WI-38). Compounds were delivered to the cells after dissolving in DMSO. Five dilutions per compound were tested on a total of 4 cell lines in 96 well plates. Cellular inhibition was measured using Alamar Blue. After addition of compound a 24 hour and 48 hour time point using fluorescent plate reader was taken. Data from plate reader was analyzed in the following way: % inhibition bar graphs, % inhibition line graphs and IC50 growth inhibition values. In Tables 7-14, IC50 units are Molar (M).

[2] = system: normal (non-cancer) cell line WI-38; assay: Cellular inhibition, Alamar Blue; type: cell-based; details: for IC50: Homo sapiens, WI-38
Experimental: as §1

[3] = system: prostate (PC-3) cancer cell line; assay: Cellular inhibition, Alamar Blue; type: cell-based
Experimental: as §1

[4] = system: pancreatic (Panc1) cancer cell line; assay: Cellular inhibition, Alamar Blue; type: cell-based; details: Homo sapiens, PANC-1
Experimental: as §1

[5] = system: cancer cell lines SKBR3, Panc1, PC-3; assay: Cellular inhibition, Alamar Blue, cancer cell lines taken together; type: cell-based; details: 24 hours
Experimental: as §1

[6] = In vitro enzyme hydrolysis in human serum (HPLC); type: in vitro ADME; details: 25% human serum; for Test compound Rate: rate of decomposition of test compound; for Test compound Concentration: remaining test compound
Experimental: A 25% solution of human serum in 0.01M phosphate buffer was taken and the test compound (glucose aspirin or aspirin) were added to get a concentration of 0.2 mg/mL. The hydrolysis for the rate of release of salicylic acid and the rate of decomposition of the test compound were measured by HPLC.

[7] = system: carrageenan induced rat paw edema; assay: Carrageenan induced rat paw edema; type: in vivo, albino rats; details: for Percent inhibition of paw edema (Std. Error): Example 9, 100 mg/kg oral with food
Experimental: Animals were kept under 13 hour day night cycle. Animals were given standard diet and water was provided ad, libitum. All animals were acclimatized for at least one week before the experimental session. Animals were divided in to five groups. Each group consisted of 8 animals.
Pedal inflammation in albino rats of either sex was produced according to the method of Winter et al., (Proc Soc Exp Biol Med 1963; 111: 544-7). An injection was made with 0.1 ml of 1% carrageenan (SIGMA) suspension into the right hind foot of each rat in the plantar region. […] Control group 5 was given 0.5 ml saline and groups 1 and 2 received aspirin. Increase in linear paw circumference was measured by tying a piece of cotton thread round the rat's paw, and noting the point of intersection of two ends on a meter scale. This was taken as an index of increase in paw volume, which is a measure of oedema (Bamgbose S O A, Noamesi B K. Planta Med 1981; 42: 392-6). Measurements were taken immediately before and at 1, 2 and 3 hours after carrageenan injection. The inhibitory activity was calculated according to the following formula (Awe S O, Olajide O A, Adeboye J O, Makinde J M. Indian J Pharmacol 1998; 30: 38-42):
[formula] Ct-Linear paw circumference 3 hours after carrageenan injection and Co-Linear paw circumference before carrageenan injection.
Albino rats obtained from central animal house of institute were used in the study. The animals were kept under 12 hour day night cycle. Animals were given standard diet and water was provided ad libitum. All animals were acclimatized for at least one week before the experimental session. Animals were divided into twelve groups in the carrageenan induced paw edema and tail flick method. Each group consisted of 4 animal each.
Animals were divided into eight groups in the carrageenan induced paw edema and tail flick method. Each group consisted of 6 animal each. The groups received various chemicals as given in Table 16 by oral administration with food. The following methods were used to evaluate the activity of the compositions:
Pedal inflammation in albino rats of either sex was produced according to the method of Winter et al. (Proc. Soc. Exp. Biol. Med., 1963, 111: 544-547). An injection was made with 0.1 ml of 1% carrageenan (SIGMA) suspension into the right hind foot of each rat in the plantar region. The various chemicals were given 30 minutes before carrageenan injection. Increase in linear paw circumference was measured by tying a piece of cotton thread round the rat's paw, and noting the point of intersection of two ends on a meter scale. This was taken as an index of increase in paw volume, which is a measure of edema (Bamgbose, S. O. A. & Noamesi, B. K., Planta. Med., 1981, 42: 392-396). Measurements were taken immediately before and at 1, 2 and 3 hours after carrageenan injection. The inhibitory activity was calculated according to the following formula (Awe S O, Olajide O A, Adeboye J O, Makinde J M. Indian J. Pharmacol., 1998; 30: 38-42):
Animals were divided into six groups in the carrageenan induced paw edema and tail flick method. Each group consisted of 8 animals each. Carrageenan-induced rat paw edema and Tail flick test were performed as discussed above in Example 8. Data were analyzed using analysis of variance (ANOVA) with Posthoc Bonferroni multi-comparisons. P<0.05 was considered as statistically significant.

[8] = system: tail flick latency in rats; assay: Tail flick test (analgesic activity); type: in vivo, albino rats
Experimental: Rats were screened for tail flip reaction with a cut-off time of 5 seconds. For each animal, the tail flick latency was obtained thrice before drug administration and mean was used as pre-drug latency. The tail flick latencies were measured at 0, 0.5, 1, 1.5, 2 and 3 h after administration chemicals.
Albino rats obtained from central animal house of institute were used in the study. The animals were kept under 12 hour day night cycle. Animals were given standard diet and water was provided ad libitum. All animals were acclimatized for at least one week before the experimental session. […] Each group consisted of 4 animal each.
Rats were screened for tail flip reaction with a cut-off time of 5 seconds. For each animal, the tail flick latency was obtained thrice before drug administration and mean was used as pre-drug latency. The tail flick latencies were measured at 0, 0.5, 1, 1.5, 2 and 3 h after administration of chemicals.
Each group consisted of 8 animals each. […] Data were analyzed using analysis of variance (ANOVA) with Posthoc Bonferroni multi-comparisons. P<0.05 was considered as statistically significant.

[9] = water at 25° C.; Merck Index; cited from earlier work
PANC-1 cells [10] = assay: GI50 (50% inhibition of cell growth), MTT assay, 72 hours; type: cell-based; details: Homo sapiens, PANC-1, 72 h
Experimental: (§2) The cells were plated onto a 96 well plate and treated with different concentrations of the compounds from 1 ng/ml to 10 ug/ml for 72 hours followed by MTT assay.
(§3) The cells were plated onto a 96 well plate and treated with different concentrations of the compounds from 0.04 ng/ml to 400 ng/ml for 72 hours followed by MTT assay.

WI38 normal cell line [11] = assay: as above; type: cell-based; details: Homo sapiens, WI-38, 72 h, WI38, 72 hours
Experimental: as §2, §3

PC3 cells [12] = assay: as above; type: cell-based; details: Homo sapiens, PC-3, 72 h, PC3, 72 hours
Experimental: as §2, §3

SK-BR-3 cells [13] = assay: as above; type: cell-based; details: Homo sapiens, SK-BR-3, 72 h
Experimental: as §2, §3

PANC-1 cells [14] = assay: EC50 cytotoxicity, MTT assay, 48 hours; type: cell-based; details: Homo sapiens; PANC-1, 48 hours, 0.04 ng/ml to 400 ng/ml
Experimental: (§4) Cytotoxicity of the compounds on three different cancer cell lines and one normal cell line was tested. Four human cell lines including both cancer cell lines (SK-BR-3, PANC-1, PC3) and normal cell line (W138) were initially employed. The cells (20,000 cells/well) were plated onto a 96-well plate for 24 hours before treatment. The compounds were diluted in the medium and added to the cells at different concentrations for additional 48 hours from 0.04 ng/ml to 400 ng/ml. MTT assay was then performed.

WI38 normal cell line [15] = assay: EC50 cytotoxicity, MTT assay, 48 hours; type: cell-based; details: Homo sapiens, WI-38; WI38, 48 hours, 0.04 ng/ml to 400 ng/ml
Experimental: as §4

PC3 cells [16] = assay: EC50 cytotoxicity, MTT assay, 48 hours; type: cell-based; details: Homo sapiens, PC-3; PC3, 48 hours, 0.04 ng/ml to 400 ng/ml
Experimental: as §4

SK-BR-3 cells [17] = assay: EC50 cytotoxicity, MTT assay, 48 hours; type: cell-based; details: Homo sapiens; SK-BR-3, 48 hours, 0.04 ng/ml to 400 ng/ml
Experimental: as §4

[18] = Example 6, 50-200 mg/kg, compared with control groups and aspirin
[19] = 0.04 ng/ml to 400 ng/ml (Example 14)
[20] = 1 ng/ml to 10 ug/ml (Example 8)

IC50 ([1]; SKBR3, 24 hours): 731 µM
IC50 ([1]; SKBR3, 48 hours): 693 µM
IC50 ([3]; PC3, 24 hours): 771 µM
IC50 ([3]; PC3, 48 hours): 782 µM
IC50 ([4]; PANC1, 24 hours): 975 µM
IC50 ([4]; PANC1, 48 hours): 745 µM
Average rate, test compound ([6]; decomposition of test compound, 0-180 min): -1.57e-06 M/min
Test compound Rate ([6]; 0 min): 0 M/min
Test compound Rate ([6]; 30 min): -1.4e-06 M/min
Test compound Rate ([6]; 60 min): -9.81e-07 M/min
Test compound Rate ([6]; 90 min): -2.32e-06 M/min
Test compound Rate ([6]; 120 min): -1.56e-06 M/min
Test compound Rate ([6]; 180 min): -1.58e-06 M/min
Test compound Concentration ([6]; 0 min): 457 µM
Test compound Concentration ([6]; 30 min): 415 µM
Test compound Concentration ([6]; 60 min): 399 µM
Test compound Concentration ([6]; 90 min): 248 µM
Test compound Concentration ([6]; 120 min): 270 µM
Test compound Concentration ([6]; 180 min): 174 µM
Structure (SMILES): CC(=O)Oc1ccccc1C(=O)O [Aspirin, acetylsalicylic acid]
IC50 ([2]; WI38, 24 hours): 619 µM
IC50 ([2]; WI38, 48 hours): 501 µM
inhibition of cancer cell growth (in words) [5]: did not seem to inhibit growth by any significant means
Paw circumference ([7]; Example 6, 100 mg/kg, 0 h): 3.125 ± 0.13 mm
Paw circumference ([7]; Example 6, 100 mg/kg, 1 h): 3.475 ± 0.15 mm
Paw circumference ([7]; Example 6, 100 mg/kg, 2 h): 3.6 ± 0.14 mm
Paw circumference ([7]; Example 6, 100 mg/kg, 3 h): 3.475 ± 0.10 mm
Paw circumference ([7]; Example 6, 200 mg/kg, 0 h): 3.3 ± 0.18 mm
Paw circumference ([7]; Example 6, 200 mg/kg, 1 h): 3.425 ± 0.21 mm
Paw circumference ([7]; Example 6, 200 mg/kg, 2 h): 3.575 ± 0.13 mm
Paw circumference ([7]; Example 6, 200 mg/kg, 3 h): 3.55 ± 0.10 mm
% inhibition of paw edema (in words) [7, 18]: significantly inhibited the development of the edema
Paw circumference ([7]; Example 8 (in vivo), 100 mg/kg oral with food, 0 h): 3.4 mm
Paw circumference ([7]; Example 8 (in vivo), 100 mg/kg oral with food, 1 h): 3.82 mm
Paw circumference ([7]; Example 8 (in vivo), 100 mg/kg oral with food, 2 h): 3.58 mm
Paw circumference ([7]; Example 8 (in vivo), 100 mg/kg oral with food, 3 h): 3.67 mm
Percent inhibition of paw edema (Std. Error) ([7]; 1 hr): 55.44%
Percent inhibition of paw edema (Std. Error) ([7]; 2 hr): 79.16%
Percent inhibition of paw edema (Std. Error) ([7]; 3 hr): 75.29%
Tail flick latency / analgesic activity (in words) ([8]; Example 5, 100 and 200 mg/kg i.p., rats): significant increase in the tail flick latency
Tail flick latency time ([8]; Example 6, 100 mg/kg, 0 min): 1.64 ± 0.27 s
Tail flick latency time ([8]; Example 6, 100 mg/kg, 30 min): 3.28 ± 0.26 s
Tail flick latency time ([8]; Example 6, 100 mg/kg, 60 min): 3.28 ± 0.57 s
Tail flick latency time ([8]; Example 6, 100 mg/kg, 90 min): 2.88 ± 0.26 s
Tail flick latency time ([8]; Example 6, 100 mg/kg, 120 min): 2.73 ± 0.48 s
Tail flick latency time ([8]; Example 6, 100 mg/kg, 180 min): 2.05 ± 0.76 s
Tail flick latency time ([8]; Example 6, 200 mg/kg, 0 min): 2.32 ± 0.46 s
Tail flick latency time ([8]; Example 6, 200 mg/kg, 30 min): 3.46 ± 0.77 s
Tail flick latency time ([8]; Example 6, 200 mg/kg, 60 min): 3.46 ± 0.17 s
Tail flick latency time ([8]; Example 6, 200 mg/kg, 90 min): 3.03 ± 0.42 s
Tail flick latency time ([8]; Example 6, 200 mg/kg, 120 min): 3.12 ± 0.30 s
% MPE / analgesic activity in tail flick test (in words) [8, 18]: significantly more
Tail flick latency time ([8]; Example 8 (in vivo), 100 mg/kg oral with food, 0 min): 2.37 s
Tail flick latency time ([8]; Example 8 (in vivo), 100 mg/kg oral with food, 30 min): 2.75* seconds
Tail flick latency time ([8]; Example 8 (in vivo), 100 mg/kg oral with food, 60 min): 2.68 s
Tail flick latency time ([8]; Example 8 (in vivo), 100 mg/kg oral with food, 90 min): 2.57 s
Tail flick latency time ([8]; Example 8 (in vivo), 100 mg/kg oral with food, 120 min): 2.23 s
Tail flick latency time ([8]; Example 8 (in vivo), 100 mg/kg oral with food, 180 min): 2.37 s
Aspirin solubility in water [9]: 0.33 g/100 mL

IC50 ([1]; SKBR3, 24 hours): 0.694 µM
IC50 ([1]; SKBR3, 48 hours): 3.23 µM
IC50 ([3]; PC3, 24 hours): 0.0581 µM
IC50 ([3]; PC3, 48 hours): 0.0803 µM
IC50 ([4]; PANC1, 24 hours): 0.153 µM
IC50 ([4]; PANC1, 48 hours): 0.18 µM
GI50 (PANC-1 cells [10]; [19]): 5.46 ng/mL (≈ 6.39 nM)
GI50 (PANC-1 cells [10]; [20]): 1.8 ng/mL (≈ 2.11 nM)
GI50 (PC3 cells [12]; [19]): 0.05 ng/mL (≈ 0.0586 nM)
GI50 (PC3 cells [12]; [20]): 258 ng/mL (≈ 302 nM)
GI50 (SK-BR-3 cells [13]; [19]): 0.78 ng/mL (≈ 0.913 nM)
GI50 (SK-BR-3 cells [13]; [20]): 1.15 ng/mL (≈ 1.35 nM)
Structure (SMILES): CC(=O)O[C@H]1C(=O)[C@@]2(C)[C@H]([C@H](OC(=O)c3ccccc3)[C@]3(O)C[C@H](OC(=O)[C@H](O)[C@@H](NC(=O)c4ccccc4)c4ccccc4)C(C)=C1C3(C)C)[C@]1(OC(C)=O)CO[C@@H]1C[C@@H]2O [Taxol, Paclitaxel]
Effect on normal cell growth (WI-38) (in words) ([2]; 48 hours): some effect on normal cell growth
IC50 ([2]; WI38, 24 hours): 19.1 µM
IC50 ([2]; WI38, 48 hours): 80 µM
inhibition ([3]; PC-3, 48 hours, all concentrations): ~60%
GI50 (WI38 normal cell line [11]; [19]): 5.6 ng/mL (≈ 6.56 nM)
GI50 (WI38 normal cell line [11]; [20]): 514 ng/mL (≈ 602 nM)
EC50 (PANC-1 cells [14]): 32.8 ng/mL (≈ 38.4 nM)
EC50 (WI38 normal cell line [15]): 37.9 ng/mL (≈ 44.4 nM)
EC50 (PC3 cells [16]): 8.51 ng/mL (≈ 9.97 nM)
EC50 (SK-BR-3 cells [17]): 36.1 ng/mL (≈ 42.2 nM)

Source: patent publication US9012411B2, “Formulations from derivatives of curcumin, paclitaxel, and aspirin” (Organomed Corporation, priority 2009, dated 2015)
